According to the supplement of paper PMC10307832:

Columns and labels:
Assay in all cases: relative viability (nuclei count vs DMSO), 5 days (fraction); higher = more cells survive
AT-7519 + Navitoclax = compound: O=C(NC1CCNCC1)c1n[nH]cc1NC(=O)c1c(Cl)cccc1Cl [AT-7519] + CC1(C)CCC(c2ccc(Cl)cc2)=C(CN2CCN(c3ccc(C(=O)NS(=O)(=O)c4ccc(N[C@H](CCN5CCOCC5)CSc5ccccc5)c(S(=O)(=O)C(F)(F)F)c4)cc3)CC2)C1 [Navitoclax] (partner 0.5 µM)
Summary of the method: (§1)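 Each reported value is a median over duplicate plates. It expresses relative viability: treated-well nuclei count divided by vehicle-well nuclei count. Lung cancer cell lines in 1536-well plates were dosed by pin tool a day after seeding, alone with one drug or with a fixed anchor-drug dose plus five library-drug doses (not always all listed) in √10 steps, and nuclei were counted after 5 days.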

[1] = compound: C1=CC2=C(C=C(C(=C2N=C1)O)N=NC3=CC4=C(C=C3)C=C(C=C4)S(=O)(=O)O)S(=O)(=O)O + COc1cccc2cc(-c3nc([C@H]4CC[C@H](C(=O)O)CC4)n4ncnc(N)c34)[nH]c12 [OSI-027] (partner 0.5 µM)
Summary of the method: as §1

AT-7519 + Linsitinib = compound: O=C(NC1CCNCC1)c1n[nH]cc1NC(=O)c1c(Cl)cccc1Cl [AT-7519] + C[C@]1(O)C[C@@H](c2nc(-c3ccc4ccc(-c5ccccc5)nc4c3)c3c(N)nccn32)C1 [Linsitinib] (partner 1 µM)
Summary of the method: as §1

[2] = compound: C1=CC2=C(C=C(C(=C2N=C1)O)N=NC3=CC4=C(C=C3)C=C(C=C4)S(=O)(=O)O)S(=O)(=O)O + O=C(CCCCCCC(=O)Nc1ccccc1)NO [Vorinostat] (partner 1 µM)
Summary of the method: as §1

Cell Line	relative viability (AT-7519 + Navitoclax; first compound 0.01 µM)	relative viability (AT-7519 + Navitoclax; first compound 0.03162 µM)	relative viability (AT-7519 + Navitoclax; first compound 0.3162 µM)	relative viability (AT-7519 + Navitoclax; first compound 1 µM)	relative viability ([1]; first compound 0.08 µM)	relative viability ([1]; first compound 0.253 µM)	relative viability ([1]; first compound 0.8 µM)	relative viability ([1]; first compound 2.53 µM)	relative viability ([1]; first compound 8 µM)	relative viability (AT-7519 + Linsitinib; first compound 0.01 µM)	relative viability (AT-7519 + Linsitinib; first compound 0.03162 µM)	relative viability (AT-7519 + Linsitinib; first compound 0.3162 µM)	relative viability (AT-7519 + Linsitinib; first compound 1 µM)	relative viability ([2]; first compound 0.08 µM)	relative viability ([2]; first compound 0.253 µM)	relative viability ([2]; first compound 0.8 µM)	relative viability ([2]; first compound 2.53 µM)	relative viability ([2]; first compound 8 µM)
NCI-H1793	0.352	0.416	0.313	0.365	0.285	0.289	0.246	0.264	0.314	1.06	0.945	0.74	0.684	0.797	0.814	0.795	0.78	0.838
NCI-H1915	0.817	0.83	0.758	0.785	0.59	0.667	0.649	0.634	0.628	1.08	1.05	1.11	0.909	0.539	0.547	0.518	0.513	0.527
NCI-H1944	0.988	1.06	1.14	0.982	0.411	0.423	0.414	0.415	0.425	1.16	1.02	1.12	1.13	0.52	0.538	0.525	0.583	0.477
NCI-H1975	1.01	1.02	0.87	0.236	0.784	0.721	0.767	0.68	0.784	0.917	0.795	0.746	0.172	0.707	0.693	0.63	0.753	0.732
NCI-H1993	0.895	0.781	0.984	0.548	0.553	0.547	0.556	0.601	0.584	0.707	0.738	0.663	0.585	0.844	0.866	0.798	0.783	0.788
NCI-H2009	1.19	1.19	1.19	0.96	0.574	0.6	0.645	0.642	0.71	1.24	1.24	1.15	0.676	0.691	0.742	0.759	0.748	0.53
NCI-H2023	1.1	0.938	0.847	0.323	0.434	0.431	0.454	0.367	0.552	0.731	0.699	0.626	0.329	0.844	0.581	0.621	0.641	0.633
NCI-H2085	1.18	1.21	0.967	0.658	0.901	0.716	0.716	0.974	0.842	0.904	0.857	0.726	0.637	0.85	0.775	0.717	0.775	0.702
NCI-H2087	1.03	0.964	1.04	0.0625	0.563	0.536	0.477	0.61	0.682	1.07	1.1	0.78	0.141	0.69	0.804	0.795	0.702	0.676
NCI-H2126	0.893	0.866	0.83	0.823	0.723	0.662	0.588	0.658	0.632	0.747	0.744	0.682	0.675	0.899	0.75	0.737	0.809	0.851
NCI-H2228	1.08	0.72	1.04	0.437	0.765	0.688	0.653	0.57	0.592	0.618	0.564	0.544	0.312	0.966	0.518	0.468	0.652	0.589
NCI-H2347	0.741	0.675	0.745	0.59	0.505	0.532	0.5	0.341	0.392	1.08	1.01	0.919	0.793	0.691	0.621	0.59	0.408	0.729
NCI-H2405	1.02	0.829	0.853	0.528	0.649	0.599	0.602	0.644	0.6	1.19	0.847	0.865	0.473	1.01	0.937	0.942	1.02	0.932
NCI-H3122	1.02	1.07	1.06	0.558	1.09	0.919	0.899	0.856	0.922	0.971	1.03	1.06	0.421	1.16	1.04	0.96	0.814	0.948
PC-3 [JPC-3]	0.754	0.714	0.867	0.934	0.815	0.71	0.791	0.778	0.769	0.957	0.974	1.04	1.02	0.648	0.819	0.751	0.843	0.709
PC-14	0.994	1.03	0.952	0.719	1.16	0.861	0.819	0.833	0.837	0.927	0.873	0.909	0.848	0.815	0.83	0.816	0.745	0.752
RERF-LC-KJ	1.04	0.981	0.848	0.408	0.664	0.624	0.593	0.608	0.588	0.914	0.848	1.03	0.811	0.809	0.811	0.662	0.695	0.603
SK-LU-1	0.516	0.848	0.882	0.189	0.424	0.366	0.38	0.338	0.354	1.39	1.2	0.849	0.356	0.766	0.725	0.753	0.719	0.697
